Data on three compounds can be found in article PMC5342071, “A first generation inhibitor of human Greatwall kinase, enabled by structural and functional characterisation of a minimal kinase domain construct” (Oncotarget, 2016).

Holding throughout (format): biochemical
In one test the target is T1, hGWL^FL (Homo sapiens, UniProt Q96GX5).
T1 construct: N-terminally FLAG-tagged full-length human GWL; made in house; host or cells: HEK293T cells, transfected and nocodazole-arrested; protein captured on anti-Flag M2 beads
T1 sequence (Q96GX5 1-879): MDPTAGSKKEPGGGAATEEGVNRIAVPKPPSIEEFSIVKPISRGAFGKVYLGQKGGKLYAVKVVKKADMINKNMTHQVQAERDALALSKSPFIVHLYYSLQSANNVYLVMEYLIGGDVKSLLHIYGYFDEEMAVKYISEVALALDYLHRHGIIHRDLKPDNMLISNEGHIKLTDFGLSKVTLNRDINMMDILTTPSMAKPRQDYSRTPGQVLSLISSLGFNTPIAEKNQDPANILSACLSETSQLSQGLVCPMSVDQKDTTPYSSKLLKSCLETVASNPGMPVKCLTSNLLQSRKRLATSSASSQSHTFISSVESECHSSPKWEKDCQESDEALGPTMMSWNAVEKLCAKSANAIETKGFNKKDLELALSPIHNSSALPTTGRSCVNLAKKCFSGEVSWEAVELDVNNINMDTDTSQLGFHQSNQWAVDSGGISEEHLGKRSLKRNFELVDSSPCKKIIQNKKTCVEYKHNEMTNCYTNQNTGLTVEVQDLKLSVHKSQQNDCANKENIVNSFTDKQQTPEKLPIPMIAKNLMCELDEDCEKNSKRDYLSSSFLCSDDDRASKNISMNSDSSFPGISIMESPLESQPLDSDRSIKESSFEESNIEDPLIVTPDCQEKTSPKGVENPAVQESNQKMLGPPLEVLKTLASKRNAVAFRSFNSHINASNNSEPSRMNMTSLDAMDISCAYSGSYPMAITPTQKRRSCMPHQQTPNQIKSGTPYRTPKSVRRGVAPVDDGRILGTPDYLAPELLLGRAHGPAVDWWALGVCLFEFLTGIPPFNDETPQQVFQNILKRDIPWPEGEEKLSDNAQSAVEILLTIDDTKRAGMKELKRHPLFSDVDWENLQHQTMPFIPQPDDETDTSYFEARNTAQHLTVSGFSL
Kind of test: Immunoprecipitation kinase assay with Flag-tagged hGWL^FL (p-ENSA western). To be noted: for IC50: immunoprecipitated Flag-tagged hGWL^FL, read-out: IC50 GWL^FL. The procedure: 500 mM NaCl, and 0.5 mM TCEP) diluted to desired concentration or immunoprecipitated hGWL on beads with ultra-pure ATP [Promega, 25 µM] and His-tagged substrate  α-endosulfine (ENSA, 2 µM) in kinase assay buffer (50 mM Tris-HCl pH 7.5, 0.5 mM EGTA, 150 mM NaCl, 0.1% v/v NP-40 and 15 mM MgCl2). The […]
(dithiothreitol), 50% v/v Glycerol, 10% v/v SDS (sodium dodecyl sulphate), and 0.25M Tris-HCl pH 6.8) or Kinase-Glo Max reagent [Promega]. Recombinant His-tagged ENSA was purified using Ni-NTA agarose [QIAGEN] from BL21 E. coli following the manufacturer’s recommended protocol. […]
(§1) All kinase assays were repeated thrice per assay condition and each point on the concentration-dependent response curves represents the mean ± […]
Immunoprecipitation Kinase Assay
HEK293T cells were transfected with 10 µg of plasmid (Flag-tagged hGWLFL or GFP; pcDNA3-EGFP, Addgene, Cambridge MA, USA) using CaCl2. […]
incubated for a further 16–18 h. Cells were collected and washed in PBS-A followed by lysis on ice for 20 min in 1mL IP buffer (50 mM Tris-HCl pH 7.5, 150 mM NaCl, 10% v/v glycerol, 0.5% v/v NP-40, 1 mM EDTA supplemented with protease and phosphatase inhibitors (Complete and PhosStop; Roche Diagnostics)). Samples were then sonicated and clarified by centrifugation at 13,000 rpm for 30 min at 4°C. To capture Flag-tagged […]
hGWLFL, 100 µl of lysate was diluted 5-fold with IP buffer and combined with 3 µl anti-Flag M2 magnetic Dynabeads [Sigma-Aldrich] overnight at 4 °C. After sequential washes with IP buffer, 1:1 mix of IP and kinase assay buffers and a final wash in kinase assay buffer, the beads were then used in the kinase assay. The reaction was stopped by adding SDS loading buffer and analysed by western blot: p-ENSA and GWL levels were detected using the anti-phospho(Ser67)-ENSA and anti-MASTL(GWL, Prestige) antibodies. Activity was measured as the p-ENSA/GWL ratio and % kinase activity was normalised to the DMSO control. All kinases assays were repeated thrice per assay condition and each point on the concentration-dependent response curves represents the mean ± 1 S.D. […]

In a further test the target is T2, CDK2 (Homo sapiens, UniProt P24941).
T2 construct: made in house; host or cells: E. coli
Kind of test: CDK2 kinase assay, Histone H1 substrate, Kinase-Glo Max. To be noted: for IC50: ± S.D. The protocol:
PKA, ROCK1 and CDK2 kinase assays
PKA and ROCK1 assays (Promega) were carried out according to the manufacturer’s protocols and CDK2 assays were carried out with Histone H1 as substrate (1 µg per 20 µl reaction) according to our Kinase-Glo Max assay. CDK2 was expressed and purified from E. coli as previously described (10). […]
Data were normalised against the AllStars negative control siRNA treated cells and values obtained from 3 – 5 biological replicates were reported as the mean ± 1 S.D.

In another test the target is T3, hGWL-KinDom (Homo sapiens, UniProt Q96GX5).
T3 construct: that encoded amino acids (aa) 1-194 + ‘RTFC’ + 740-879 of hGWL; GST (rhinovirus 3C-protease cleavable) (N, cleaved yes); made in house; host or cells: E. coli Rosetta2(DE3)
Put plainly: Kinase-Glo Max luminescence kinase assay with hGWL-KinDom. To be noted: Kinase-Glo Max assay; read-out: IC50 GWL-KinDom. The procedure:
Non-radioactive kinase assays were set-up by combining hGWL-KinDom (305 µM in 20 mM HEPES pH 7.5, FL 500 mM NaCl, and 0.5 mM TCEP) diluted to desired concentration or immunoprecipitated hGWL on beads with ultra-pure ATP [Promega, 25 µM] and His-tagged substrate  α-endosulfine (ENSA, 2 µM) in kinase assay buffer (50 mM Tris-HCl pH 7.5, 0.5 mM EGTA, 150 mM NaCl, 0.1% v/v NP-40 and 15 mM MgCl2). The reaction was allowed to proceed for 30 min at 37 °C or another indicated time-point after which it was stopped with either SDS loading buffer (5X buffer, including 0.25 % w/v Bromophenol blue, 0.5 M DTT (dithiothreitol), 50% v/v Glycerol, 10% v/v SDS (sodium dodecyl sulphate), and 0.25M Tris-HCl pH 6.8) or Kinase-Glo Max reagent [Promega]. Recombinant His-tagged ENSA was purified using Ni-NTA agarose [QIAGEN] from BL21 E. coli following the manufacturer’s recommended protocol. […]
as §1
After stopping the above non-radioactive kinase assay with 1 volume of Kinase-Glo Max reagent the mixture was allowed to incubate for a further 15 min. To detect consumption of ATP, samples were transferred to white, flat-bottom 96-well plates [Thermo Fisher Scientific, Loughborough, UK] and luminescence was detected using a POLARstar Omega micro-plate reader [BMG Labtech GmbH, Ortenberg, Germany]. As this assay measures ATP, activity or ATP turnover was measured as the -ΔRLU. […]
In general terms: In Kinase-Glo more light means more ATP remaining.

T3 sequence (Q96GX5 with tags, fused parts or gaps limits assumed): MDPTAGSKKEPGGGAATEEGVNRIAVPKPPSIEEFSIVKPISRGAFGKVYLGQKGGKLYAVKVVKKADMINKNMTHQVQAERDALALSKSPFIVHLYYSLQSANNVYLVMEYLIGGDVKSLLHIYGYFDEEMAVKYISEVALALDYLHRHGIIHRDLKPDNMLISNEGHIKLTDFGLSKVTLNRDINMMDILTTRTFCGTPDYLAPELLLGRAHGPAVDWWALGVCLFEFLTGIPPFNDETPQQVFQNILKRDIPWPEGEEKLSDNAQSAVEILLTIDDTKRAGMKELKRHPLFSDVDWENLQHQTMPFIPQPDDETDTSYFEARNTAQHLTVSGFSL

Regarding `Clc1ccc(Nc2cccc(-c3cn[nH]c3)c2)cc1` [GKI-1, N-(4-chlorophenyl)-3-(1H-pyrazol-4-yl)aniline], on hGWL^FL (for GKI-1: EC50 hGWL^FL vs IC50 hGWL-KinDom), the “inhibitory ratio (IC50 GWL^FL/IC50 GWL-KinDom)” value was ~ 2. Further, the EC50 at hGWL^FL (immunoprecipitated hGWL^FL, read-out: EC50 GWL^FL) worked out at 4.9 µM. Also, the “inhibitory activity towards CDK2” value against CDK2 (concentrations up to 100 μM) is “no observable inhibitory activity”. For the same compound, the IC50 at CDK2 is > 100 µM; on hGWL-KinDom, 2.5 µM.
For the compound `CN(C)CC#Cc1cccc(C(=O)c2cnn(-c3ccc(F)cc3)c2N)c1` [GRI-3], the half-inhibitory concentration (IC50) turned out to be 66 µM at hGWL^FL and 109 ± 13.7 µM at hGWL-KinDom.
With `CCN(CC)Cc1ccc(Nc2nccc(-c3cnn4ncccc34)n2)cc1` [GRI-4], the IC50 on hGWL^FL worked out at 2.5 µM; against CDK2, 0.089 ± 0.003 µM; on hGWL-KinDom, 3.22 ± 0.31 µM.

What is called EC50 is the concentration needed to bring the measured effect to its halfway point. Broadly, the IC50 is the midpoint of a concentration-inhibition curve.
